Experimental data: PubChem BioAssay AID248 (DTP/NCI, 2004)
“And” between values parts separate entries of the source, which are not always exact repeats. Identical values can stand only once. Inconclusive results and toxic doses are left out. Cut-off read from the data, not from the text of the source: active = T/C of 150% or more; inactive = T/C below 125%.

Test system: L1210 leukemia ip in BDF1 mice, survival T/C
Test: NCI In Vivo Anticancer Drug Screen. Data for tumor model L1210 Leukemia (intraperitoneal) in B6D2F1 (BDF1) mice
Conditions: endpoint: mean survival time, higher = longer survival
Outline: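 Read-out is survival time, reported as the treated-group measurement over the vehicle-control measurement.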

[1] = dose: 25.0 mg/kg/injection, schedule: Q04DX003 (ip), vehicle: saline
[2] = dose: 50.0 mg/kg/injection, schedule: Q01DX009 (ip), vehicle: saline
[3] = dose: 50.0 mg/kg/injection, schedule: Q04DX003 (ip), vehicle: saline
[4] = dose: 100.0 mg/kg/injection, schedule: Q04DX003 (ip), vehicle: saline
[5] = dose: 100.0 mg/kg/injection, schedule: Q01DX009 (ip), vehicle: saline
[6] = dose: 200.0 mg/kg/injection, schedule: Q04DX003 (ip), vehicle: saline
[7] = dose: 400.0 mg/kg/injection, schedule: Q04DX003 (ip), vehicle: saline
[8] = dose: 100.0 mg/kg/injection, schedule: Q04DX003 (ip), vehicle: Klucel (hydroxypropylcellulose) (HPC)
[9] = dose: 200.0 mg/kg/injection, schedule: Q01DX009 (ip), vehicle: Klucel (hydroxypropylcellulose) (HPC)
[10] = dose: 200.0 mg/kg/injection, schedule: Q04DX003 (ip), vehicle: Klucel (hydroxypropylcellulose) (HPC)
[11] = dose: 400.0 mg/kg/injection, schedule: Q01DX009 (ip), vehicle: Klucel (hydroxypropylcellulose) (HPC)
[12] = dose: 400.0 mg/kg/injection, schedule: Q04DX003 (ip), vehicle: Klucel (hydroxypropylcellulose) (HPC)
[13] = dose: 100.0 mg/kg/injection, schedule: Q04DX003 (ip), vehicle: saline with Tween-80
[14] = dose: 200.0 mg/kg/injection, schedule: Q04DX003 (ip), vehicle: saline with Tween-80
[15] = dose: 400.0 mg/kg/injection, schedule: Q04DX003 (ip), vehicle: saline with Tween-80
[16] = dose: 100.0 mg/kg/injection, schedule: Q01DX009 (ip), vehicle: Klucel (hydroxypropylcellulose) (HPC)

Measured: T/C

CC1(C)C(=O)NC(=O)C1(C)C
inactive: dose: 1.56 mg/kg/injection, schedule: Q03HX024 (ip), vehicle: saline 106 % of control | dose: 3.12 mg/kg/injection, schedule: Q03HX024 (ip), vehicle: saline 100 % of control | dose: 3.12 mg/kg/injection, schedule: Q04DX003 (ip), vehicle: saline 100 % of control | dose: 4.12 mg/kg/injection, schedule: Q01DX009 (ip), vehicle: saline 100 % of control | dose: 6.25 mg/kg/injection, schedule: Q01DX009 (ip), vehicle: saline 106 % of control | dose: 6.25 mg/kg/injection, schedule: Q03HX024 (ip), vehicle: saline 101 % of control | dose: 6.25 mg/kg/injection, schedule: Q04DX003 (ip), vehicle: saline 104 % of control | dose: 8.25 mg/kg/injection, schedule: Q01DX009 (ip), vehicle: saline 100 % of control | dose: 12.5 mg/kg/injection, schedule: Q01DX009 (ip), vehicle: saline 102 % of control | dose: 12.5 mg/kg/injection, schedule: Q03HX024 (ip), vehicle: saline 100 % of control | dose: 12.5 mg/kg/injection, schedule: Q04DX003 (ip), vehicle: saline 104 % of control and 108 % of control | dose: 16.5 mg/kg/injection, schedule: Q01DX009 (ip), vehicle: saline 92 % of control | dose: 18.75 mg/kg/injection, schedule: Q01DX001 (ip), vehicle: saline 105 % of control | dose: 25.0 mg/kg/injection, schedule: Q01DX009 (ip), vehicle: saline 106 % of control | [1] 102 % of control and 105 % of control | dose: 33.0 mg/kg/injection, schedule: Q01DX009 (ip), vehicle: saline 105 % of control | dose: 37.5 mg/kg/injection, schedule: Q01DX001 (ip), vehicle: saline 108 % of control | [2] 102 % of control | [3] 100 % of control and 102 % of control | dose: 66.0 mg/kg/injection, schedule: Q01DX009 (ip), vehicle: saline 90 % of control | dose: 75.0 mg/kg/injection, schedule: Q01DX001 (ip), vehicle: saline 108 % of control | [4] 94 % of control | dose: 150.0 mg/kg/injection, schedule: Q01DX001 (ip), vehicle: saline 103 % of control

O=C1NCCS1
inactive: [2] 107 % of control | dose: 100.0 mg/kg/injection, schedule: Q01DX009 (ip), vehicle: saline with Tween-80 107 % of control | [5] 92 % of control | dose: 100.0 mg/kg/injection, schedule: Q04DX003 (ip), vehicle: saline sonified 102 % of control | dose: 200.0 mg/kg/injection, schedule: Q01DX009 (ip), vehicle: saline with Tween-80 107 % of control | dose: 200.0 mg/kg/injection, schedule: Q01DX009 (ip), vehicle: saline 115 % of control | dose: 200.0 mg/kg/injection, schedule: Q04DX003 (ip), vehicle: saline sonified 100 % of control | dose: 400.0 mg/kg/injection, schedule: Q01DX009 (ip), vehicle: saline with Tween-80 96 % of control | dose: 400.0 mg/kg/injection, schedule: Q04DX003 (ip), vehicle: saline sonified 106 % of control

Cc1cc(CCl)c(C)c(Br)c1C
inactive: dose: 6.25 mg/kg/injection, schedule: Q01DX009 (ip), vehicle: Klucel (hydroxypropylcellulose) (HPC) 95 % of control | dose: 12.5 mg/kg/injection, schedule: Q01DX009 (ip), vehicle: Klucel (hydroxypropylcellulose) (HPC) 90 % of control | dose: 25.0 mg/kg/injection, schedule: Q01DX009 (ip), vehicle: Klucel (hydroxypropylcellulose) (HPC) 89 % of control | dose: 50.0 mg/kg/injection, schedule: Q01DX009 (ip), vehicle: Klucel (hydroxypropylcellulose) (HPC) 92 % of control

O=c1cc(CN2CCN(CCO)CC2)[nH]c(=O)[nH]1
inactive: [4] 101 % of control | [6] 95 % of control | [7] 95 % of control

N#CC1C2C=CC(CC2)C1C#N (stereo not given) (tested in a mixture with another compound)
inactive: dose: 0.25 mg/kg/injection, schedule: Q01DX Z (ip), vehicle: carboxymethylcellulose (CMC) 95 % of control | dose: 0.5 mg/kg/injection, schedule: Q01DX Z (ip), vehicle: carboxymethylcellulose (CMC) 93 % of control | dose: 1.0 mg/kg/injection, schedule: Q01DX Z (ip), vehicle: carboxymethylcellulose (CMC) 95 % of control | dose: 2.0 mg/kg/injection, schedule: Q01DX Z (ip), vehicle: carboxymethylcellulose (CMC) 93 % of control | dose: 5.0 mg/kg/injection, schedule: Q01DX001 (ip), vehicle: saline 98 % of control | dose: 10.0 mg/kg/injection, schedule: Q01DX001 (ip), vehicle: saline 95 % of control

O=NC1C(Cl)C2CC1C1CCCC21 (stereo not given)
inactive: [8] 95 % of control | [9] 92 % of control | [10] 92 % of control | [11] 96 % of control | [12] 94 % of control

C=CCc1ccc(OCC(=O)O)c(OC)c1
inactive: [13] 106 % of control | [14] 93 % of control | [15] 97 % of control

O=[N+]([O-])c1ccc(C2=NC(c3ccccc3)CO2)cc1 (stereo not given)
inactive: dose: 50.0 mg/kg/injection, schedule: Q01DX001 (ip), vehicle: Klucel (hydroxypropylcellulose) (HPC) 96 % of control | dose: 100.0 mg/kg/injection, schedule: Q01DX001 (ip), vehicle: Klucel (hydroxypropylcellulose) (HPC) 112 % of control | dose: 200.0 mg/kg/injection, schedule: Q01DX001 (ip), vehicle: Klucel (hydroxypropylcellulose) (HPC) 94 % of control

O=C(O)C1CCC(CC23CC4CC(CC(C4)C2)C3)CC1 (stereo not given)
inactive: [16] 108 % of control | [8] 103 % of control | [9] 103 % of control | [10] 105 % of control | [11] 109 % of control | [12] 101 % of control

CCN(CC)CCOc1ccc(Br)cc1
inactive: [1] 105 % of control | [2] 102 % of control | [3] 100 % of control | [5] 102 % of control | [4] 103 % of control and 111 % of control

CCC[CH2][Sn]([CH2]CCC)([CH2]CCC)[CH2]c1ccccc1
inactive: [4] 98 % of control | [6] 102 % of control | [7] 88 % of control

NC(=O)C[n+]1cccc(C(N)=O)c1
inactive: [4] 97 % of control | [6] 101 % of control | [7] 101 % of control

N#C/C(=C\c1cc(Cl)cc(Cl)c1O)c1ccc([N+](=O)[O-])cc1
inactive: [13] 90 % of control | [14] 92 % of control

CC(C)OP(=O)(OC(C)C)C1=C(P(=O)(OC(C)C)OC(C)C)C(F)(F)C(F)(F)C1(F)F
inactive: dose: 9.5 mg/kg/injection, schedule: Q01DX001 (ip), vehicle: other 106 % of control | dose: 19.0 mg/kg/injection, schedule: Q01DX001 (ip), vehicle: other 95 % of control | dose: 38.0 mg/kg/injection, schedule: Q01DX001 (ip), vehicle: other 89 % of control

NCCN1C(c2ccccc2)C1c1ccccc1 (stereo not given)
inactive: [3] 94 % of control | [4] 94 % of control and 105 % of control | [6] 103 % of control | [7] 100 % of control

CCCCCCCCCCSCCSCCCCCCCCCC
inactive: dose: 100.0 mg/kg/injection, schedule: Q01DX001 (ip), vehicle: carboxymethylcellulose (CMC) 95 % of control | [13] 96 % of control | dose: 200.0 mg/kg/injection, schedule: Q01DX001 (ip), vehicle: carboxymethylcellulose (CMC) 101 % of control | [14] 93 % of control | dose: 400.0 mg/kg/injection, schedule: Q01DX001 (ip), vehicle: carboxymethylcellulose (CMC) 95 % of control | [15] 89 % of control

Cc1cccc(NC(=O)c2ccc(Cl)cc2Cl)c1C
inactive: [16] 102 % of control | [8] 101 % of control | [9] 91 % of control | [10] 90 % of control | [11] 91 % of control | [12] 93 % of control

O=C(/N=N/C(=O)Oc1ccccc1)Oc1ccccc1
inactive: dose: 100.0 mg/kg/injection, schedule: Q01DX001 (ip), vehicle: saline 98 % of control | dose: 200.0 mg/kg/injection, schedule: Q01DX001 (ip), vehicle: saline 101 % of control | dose: 400.0 mg/kg/injection, schedule: Q01DX001 (ip), vehicle: saline 98 % of control

O=C(O)CCC(C(=O)O)N1C(=O)c2ccccc2C1=O (stereo not given)
inactive: [13] 97 % of control | [14] 102 % of control | [15] 105 % of control
